SMILES strings stand for the structures.

In the assay the test system is HBsAg. Kind of assay: HBsAg assay (CLIA) in HepG2.2.15 cells. Type of assay: cell-based, HBV. The settings on record: Hepatitis B virus, HepG2.2.15, read-out: IC50 (HBsAg assay). As for the experimental part: HepG2.2.15 cells (Acs et al. Proc Natl Acad Sci USA, 84, (1987), 4641-4), a constitutively HBV-expressing cell line were cultured in DMEM+Glutamax-I medium (Invitrogen, Carlsbad, Calif., USA), supplemented with 10% fetal bovine serum (Invitrogen) and G418 (Invitrogen) at a final concentration of 200 mg/L and maintained in 5% CO2 at 37° C.
HepG2.2.15 cells were seeded in duplicate into white, 96-well plates at 1.5×10^4 cells/well. The cells were treated with a three-fold serial dilution series of the compounds in DMSO. The final DMSO concentration in all wells was 1% and DMSO was used as no drug control.
The HBsAg chemiluminescence immunoassay (CLIA) kit (Autobio Diagnostics Co., Zhengzhou, China, Catalog number: CL0310-2) was used to measure the levels of secreted HBV antigens semi-quantitatively. For the detection 50 μL/well culture supernatant was used and HBsAg was quantified using HBsAg chemiluminescence immunoassay (CLIA) kit (Autobio Diagnostics Co., Zhengzhou, China, Catalog number: CL0310-2), 50 μL of the supernatant was transferred to the CLIA assay plate and 50 μL of enzyme conjugate reagent was added into each well. The plates were sealed and gently agitated for 1 hour at room temperature. The supernatant-enzyme-mixture was discarded and wells were washed 6 times with 300 μL of PBS. The residual liquid was removed by plating the CLIA plate […] on absorbent tissue paper. 25 μL of substrates A and B were added to each well. Luminance was measured using a luminometer (Mithras LB 940 Multimode Microplate Reader) after 10 minutes incubation. Dose-response curves were generated and the IC50 value was extrapolated by using the E-WorkBook Suite (ID Business Solutions Ltd., Guildford, UK). The IC50 was defined as the compound concentration (or conditioned media log dilution) at which HBsAg secretion was reduced by 50% compared to the no drug control.
The compounds according to formula I were tested for their capacity to inhibit HBsAg as described herein.
With `COc1cc(F)cc(N2CCc3nc(-c4ccccn4)ncc3C2)c1` [Example 91, 6-(3-fluoro-5-methoxy-phenyl)-2-(2-pyridyl)-7,8-dihydro-5H-pyrido[4,3-d]pyrimidine], the IC50 (usually the concentration that inhibits the measured activity by half) worked out at 0.198 µM.

For the compound `Fc1ccc(N2CCc3nc(-c4ccccn4)ncc3C2)cc1Br` [Example 51, 6-(3-bromo-4-fluoro-phenyl)-2-(2-pyridyl)-7,8-dihydro-5H-pyrido[4,3-d]pyrimidine], the IC50 came to 5.36 µM. The figure for `Fc1cc(OC(F)(F)F)cc(N2CCc3nc(-c4ncccn4)ncc3C2)c1` [Example 118, 6-[3-fluoro-5-(trifluoromethoxy)phenyl]-2-pyrimidin-2-yl-7,8-dihydro-5H-pyrido[4,3-d]pyrimidine] is 4.98 µM; for `c1ccc(-c2ncc3c(n2)CCN(c2cccnc2)C3)nc1` [Example 39, 2-(2-pyridyl)-6-(3-pyridyl)-7,8-dihydro-5H-pyrido[4,3-d]pyrimidine] it is 9.12 µM; for `COCCOc1cc(N2CCc3nc(-c4ccccn4)ncc3C2)cc(F)c1F` [Example 23, 6-[3,4-difluoro-5-(2-methoxyethoxy)phenyl]-2-(2-pyridyl)-7,8-dihydro-5H-pyrido[4,3-d]pyrimidine] it is 0.549 µM. The figure for `COc1cc(Cl)cc(N2CCc3nc(-c4ncccn4)ncc3C2)c1` [Example 98, 6-(3-chloro-5-methoxy-phenyl)-2-pyrimidin-2-yl-7,8-dihydro-5H-pyrido[4,3-d]pyrimidine] is 0.268 µM; for `N#Cc1cc(F)cc(N2CCc3nc(-c4ncccn4)ncc3C2)c1` [Example 101, 3-fluoro-5-(2-pyrimidin-2-yl-7,8-dihydro-5H-pyrido[4,3-d]pyrimidin-6-yl)benzonitrile] it is 0.674 µM. The figure for `CS(=O)(=O)c1ccc(N2CCc3nc(-c4ccc(Cl)cn4)ncc3C2)cc1` [Example 6, 2-(5-chloro-2-pyridyl)-6-(4-methylsulfonylphenyl)-7,8-dihydro-5H-pyrido[4,3-d]pyrimidine] is 18.8 µM. `COc1ccnc(N2CCc3nc(-c4ccccn4)ncc3C2)c1F` [Example 70, 6-(3-fluoro-4-methoxy-2-pyridyl)-2-(2-pyridyl)-7,8-dihydro-5H-pyrido[4,3-d]pyrimidine]: the half-inhibitory concentration (IC50) amounted to 1.55 µM.

For the compound `Clc1ccc(N2CCc3nc(-c4ccccn4)ncc3C2)cc1Cl` [Example 49, 6-(3,4-dichlorophenyl)-2-(2-pyridyl)-7,8-dihydro-5H-pyrido[4,3-d]pyrimidine], the IC50 stood at 1.07 µM. The figure for `CNc1nc(-c2ccccn2)nc2c1CN(c1ccc(S(C)(=O)=O)cc1)CC2` [Example 88] is 26.4 µM. The figure for `O=S(=O)(c1ccc(N2CCc3nc(-c4ccccn4)ncc3C2)cc1)C(F)(F)F` [Example 12, 2-(2-pyridyl)-6-[4-(trifluoromethylsulfonyl)phenyl]-7,8-dihydro-5H-pyrido[4,3-d]pyrimidine] is 13.3 µM; for `Cc1ccc(-c2ncc3c(n2)CCN(c2ccc(S(C)(=O)=O)cc2)C3)nc1` [Example 3, 2-(5-methyl-2-pyridyl)-6-(4-methylsulfonylphenyl)-7,8-dihydro-5H-pyrido[4,3-d]pyrimidine] it is 9.22 µM. For `COc1cc(N2CCc3nc(-c4ccccn4)ncc3C2)ccc1C(=O)O` [Example 65, 2-methoxy-4-[2-(2-pyridyl)-7,8-dihydro-5H-pyrido[4,3-d]pyrimidin-6-yl]benzoic acid] the value was 18.4 µM; for `COc1cc(F)nc(N2CCc3nc(-c4ncccn4)ncc3C2)c1` [Example 99, 6-(6-fluoro-4-methoxy-2-pyridyl)-2-pyrimidin-2-yl-7,8-dihydro-5H-pyrido[4,3-d]pyrimidine], 0.1 µM. As for `Cc1cccnc1-c1ncc2c(n1)CCN(c1ccc(S(C)(=O)=O)cc1)C2` [Example 4, 2-(3-methyl-2-pyridyl)-6-(4-methylsulfonylphenyl)-7,8-dihydro-5H-pyrido[4,3-d]pyrimidine], the 50% inhibitory concentration (IC50) was 17.8 µM.

Take `Clc1cc(N2CCc3nc(-c4ncccn4)ncc3C2)cc(Cl)n1` [Example 114, 6-(2,6-dichloro-4-pyridyl)-2-pyrimidin-2-yl-7,8-dihydro-5H-pyrido[4,3-d]pyrimidine]: the IC50 turned out to be 1.17 µM.

In the case of `O=C(O)c1ccc(N2CCc3nc(-c4ccccn4)ncc3C2)cc1` [Example 32, 4-[2-(2-pyridyl)-7,8-dihydro-5H-pyrido[4,3-d]pyrimidin-6-yl]benzoic acid], the IC50 amounted to 9.75 µM.

For the compound `CCOc1cc(N2CCc3nc(-c4ccccn4)ncc3C2)cc(F)c1F` [Example 21, 6-(3-ethoxy-4,5-difluoro-phenyl)-2-(2-pyridyl)-7,8-dihydro-5H-pyrido[4,3-d]pyrimidine], the IC50 stood at 0.321 µM.

Turning to `Fc1cc(Br)cc(N2CCc3nc(-c4ncccn4)ncc3C2)c1` [Example 41, 6-(3-bromo-5-fluoro-phenyl)-2-pyrimidin-2-yl-7,8-dihydro-5H-pyrido[4,3-d]pyrimidine], the IC50 was 0.5 µM. The figure for `CS(=O)(=O)c1ccc(N2CCc3nc(-c4ccccn4)nc(OCc4ccccc4)c3C2)cc1` [Example 83] is 20 µM; for `COc1cc(OC)cc(N2CCc3nc(-c4ncccn4)ncc3C2)c1` [Example 73, 6-(3,5-dimethoxyphenyl)-2-pyrimidin-2-yl-7,8-dihydro-5H-pyrido[4,3-d]pyrimidine] it is 1.96 µM; for `FC(F)(F)Oc1cccc(N2CCc3nc(-c4ncccn4)ncc3C2)c1` [Example 43, 2-pyrimidin-2-yl-6-[3-(trifluoromethoxy)phenyl]-7,8-dihydro-5H-pyrido[4,3-d]pyrimidine] it is 1.86 µM. Consider `Fc1cc(F)cc(N2CCc3nc(-c4ccccn4)ncc3C2)c1` [Example 13, 6-(3,5-difluorophenyl)-2-(2-pyridyl)-7,8-dihydro-5H-pyrido[4,3-d]pyrimidine], for which the IC50 came to 1.04 µM. For `Cc1ccc(N2CCc3nc(-c4ccccn4)ncc3C2)cc1` [Example 47, 6-(p-tolyl)-2-(2-pyridyl)-7,8-dihydro-5H-pyrido[4,3-d]pyrimidine] the value was 11.4 µM. For `COc1cc(N2CCc3nc(-c4ncccn4)ncc3C2)cc(F)c1F` [Example 26, 6-(3,4-difluoro-5-methoxy-phenyl)-2-pyrimidin-2-yl-7,8-dihydro-5H-pyrido[4,3-d]pyrimidine] the value was 0.061 µM; for `COc1cc(N2CCc3nc(-c4ccccn4)ncc3C2)cc(F)c1F` [Example 17, 6-(3,4-difluoro-5-methoxy-phenyl)-2-(2-pyridyl)-7,8-dihydro-5H-pyrido[4,3-d]pyrimidine], 0.154 µM; for `CCCCOc1cc(N2CCc3nc(-c4ccccn4)ncc3C2)ccc1C(=O)O` [Example 67, 2-butoxy-4-[2-(2-pyridyl)-7,8-dihydro-5H-pyrido[4,3-d]pyrimidin-6-yl]benzoic acid], 7.79 µM. The figure for `O=[N+]([O-])c1ccccc1N1CCc2nc(-c3ccccn3)ncc2C1` [Example 33, 6-(2-nitrophenyl)-2-(2-pyridyl)-7,8-dihydro-5H-pyrido[4,3-d]pyrimidine] is 0.39 µM; for `COCCCOc1ccc(N2CCc3nc(-c4ccccn4)ncc3C2)cc1OC` [Example 44, 6-[3-methoxy-4-(3-methoxypropoxy)phenyl]-2-(2-pyridyl)-7,8-dihydro-5H-pyrido[4,3-d]pyrimidine] it is 18.9 µM; for `COc1cc(N2CCc3nc(-c4ccncn4)ncc3C2)cc(F)c1F` [Example 29, 6-(3,4-difluoro-5-methoxy-phenyl)-2-pyrimidin-4-yl-7,8-dihydro-5H-pyrido[4,3-d]pyrimidine] it is 4.16 µM. Take `O=C(NCCCCCO)c1cc(F)cc(N2CCc3nc(-c4ncccn4)ncc3C2)c1` [Example 107, 3-fluoro-N-(5-hydroxypentyl)-5-(2-pyrimidin-2-yl-7,8-dihydro-5H-pyrido[4,3-d]pyrimidin-6-yl)benzamide]: the half-maximal inhibitory concentration (IC50) turned out to be 7.12 µM. For `COc1ccc(N2CCc3nc(-c4ccccn4)ncc3C2)cc1OC` [Example 59, 6-(3,4-dimethoxyphenyl)-2-(2-pyridyl)-7,8-dihydro-5H-pyrido[4,3-d]pyrimidine] the value was 9.06 µM; for `CCC1CN(c2ccc(S(C)(=O)=O)cc2)Cc2cnc(-c3ccccn3)nc21` (stereo not shown) [Example 7, 8-ethyl-6-(4-methylsulfonylphenyl)-2-(2-pyridyl)-7,8-dihydro-5H-pyrido[4,3-d]pyrimidine], 5.17 µM. For `Cc1nc(-c2ccccn2)nc2c1CN(c1ccc(S(C)(=O)=O)cc1)CC2` [Example 87] the value was 10.3 µM; for `COc1cc(F)cc(N2CCc3nc(-c4ncccn4)ncc3C2)c1` [Example 117, 6-(3-fluoro-5-methoxy-phenyl)-2-pyrimidin-2-yl-7,8-dihydro-5H-pyrido[4,3-d]pyrimidine], 0.157 µM; for `CCOc1ccc(N2CCc3nc(-c4ccccn4)ncc3C2)cc1F` [Example 54, 6-(4-ethoxy-3-fluoro-phenyl)-2-(2-pyridyl)-7,8-dihydro-5H-pyrido[4,3-d]pyrimidine], 3.91 µM.

The values above are taken from patent US10196391B2 (Hoffmann-La Roche Inc., priority 2014, dated 2019).
